This is an account of results in patent US20080152736A1, “Lipid Fraction of Nigella Sativa L. Seeds” (priority 2004, published 2008).

The test system of assay [1] is Staphylococcus pyogenes. Kind of assay: In vitro antimicrobial comparison, bore method (zone of inhibition). The class given is cell-based. Particulars: Ampicillin 1: g/mg; mean ± S.E. of 4 observations. The protocol:
(§1) The comparative antibacterial activity of ampicillin (1 microg/mg) and the Nigella sativa L. lipid fraction (1 mg/ml) against Staphylococcus pyogenes, Corynebacterium pyogenes and Salmonella typhi murium was performed in vitro using the bore method described by Cooper and Woodman (1964).

Assay [2] relates to Corynebacterium pyogenes. The assay is described as above. The class given is cell-based. Particulars: Ampicillin 1: g/mg; mean ± S.E. of 4 observations. The protocol: as §1
Assay [3] relates to Salmonella typhi murium. The assay is described as above. The class given is cell-based. The conditions noted are these: Ampicillin 1: g/mg; mean ± S.E. of 4 observations. The method, then:
as §1

Assay [4] has as its system sensitized guinea pigs exposed to ova albumin inhalation. Kind of assay: Tachypnea protective effect in ova albumin sensitized animals. The class given is in vivo. The conditions noted are these: ketotifen 50: g/kg, treated for 21 days. The method, then:
This experiment was an in vivo study to evaluate the tachypnea (protective) effect of the Nigella sativa L. lipid fraction of the present invention. The second protocol involved sensitized animals. Animals were sensitized by injecting ova albumin in two doses 100 mg each (S.C. and I.P., simultaneously). Animals were resensitized 15 days later. Guinea pigs were divided into three groups with 8 animals per group. The first group received a saline injection to serve as negative control. The second group received ketotifen which is the standard treatment to serve as positive control. The third group received 200 mg/kg each of the Nigella sativa L. lipid fraction of the present invention. Animals in all groups were treated for 21 days following which they were exposed to ova albumin inhalation and time to onset of tachypnea was recorded as shown in the table below.

For assay [5], the system named is guinea pigs exposed to histamine aerosol (0.25%). Kind of assay: Prophylactic anti-asthmatic effect, preconvulsive time on histamine aerosol. The class given is in vivo. The conditions noted are these: ketotifen 50: g/kg, treated for 21 days; histamine (0.25%) aerosol. The method, then: This example explains in vivo studies to evaluate the prophylactic (protective) anti-asthmatic effect of the Nigella sativa L. lipid fraction of the present invention. The prophylactic anti-asthmatic effect was evaluated in vivo by measurement of the preconvulsive time in guinea pigs exposed to histamine aerosol (0.25%).
Guinea pigs were divided into three groups with 8 animals per group. The first group received saline with injection to serve as negative control. The second group received ketotifen, which is the standard treatment to serve as positive control. The third group received 200 mg/kg each of the Nigella sativa L. lipid fraction of the present invention.
Animals in all groups were treated for 21 days following, after which they were exposed to histamine (0.25%) aerosol and the preconvulsive time was recorded.

For assay [6] the following is noted: 16 published human studies, total of 590 subjects; cited from earlier work.

For the compound `CC1(C)S[C@@H]2[C@H](NC(=O)[C@H](N)c3ccccc3)C(=O)N2[C@H]1C(=O)O` [Ampicillin, ampicillin], the “Diameter of Zone of inhibition” value is listed as 26.7 ± 0.3 mm in assay [1], 44.7 ± 0.8 mm in assay [2] and 13.1 ± 0.2 mm in assay [3].

For `CN1CCC(=C2c3ccccc3CC(=O)c3sccc32)CC1` [ketotifen], the “% of Prophylaxis” value in assay [4] came out at 44.4%. Moreover, the “% of Prophylaxis (Protection)” value in assay [5] is listed as 82.85%.

On to phytosterol, for which, in assay [6], the “average reduction in total cholesterol” value is given as 10% and the “reduction in LDL cholesterol levels” value is 13%.
